Assays:
[1] = molecular target: T1, ZIKV NS5 full-length protein (Zika virus, UniProt A0A024B7W1); assay: SPR (BIAcore) binding to ZIKV NS5 full-length protein
T1 construct: NS5 (amino acids 1 to 903); His tag (8x histidine) (N); made in house; host or cells: Escherichia coli (Rosetta)
Method: (§1) The cDNA fragment of ZIKV (ZG-01 strain) NS5 (amino acids 1 to 903), RdRp (amino acids 272 to 903), or DENV2 NS5 (amino acids 1 to 900) containing an N-terminal His tag sequence was cloned into a pET-30a-mutant vector. For protein expression, the plasmids were transformed into Rosetta™ competent cells (TIANGEN BIOTECH Co., Ltd., Beijing, China), respectively. […] Mass spectrometry was performed by Shanghai Applied Protein Technology Co. Ltd. (Shanghai, China). The concentration of a targeted protein was measured by SDS-PAGE using BSA (Sigma, St. Louis, MO) as a standard.
(§2) Surface plasmon resonance (SPR) experiments were performed in a BIAcore T100 device (BIAcore Inc., Uppsala, Sweden) using CM5 sensor chips (General Electric Company, GE) according to the protocol provided by the manufacturer. Briefly, recombinant ZIKV NS5 protein, RdRp protein, or DENV2 NS5 protein was immobilized on a CM5 chip, respectively. Different concentrations of fidaxomicin or ribavirin were injected at a flow rate of 30 μL/min for 3 min. Subsequently, data were collected for a 3-min association followed by a 20-min dissociation. The chip was regenerated by injecting 10 μL of 15 mM NaOH for 20 s. […] The binding kinetics was analyzed with the software BIAevaluation version 3.1 using a 1:1 Langmuir binding model. The Kd was calculated as previously described.

DENV2 NS5 protein = molecular target: T2, DENV2 NS5 protein (Dengue virus type 2, UniProt P14340); assay: SPR (BIAcore) binding to DENV2 NS5 protein; conditions: qualitative
T2 construct: DENV2 NS5 (amino acids 1 to 900); His tag (N); made in house
Method: as §1, §2

ZIKV NS5 polymerase = molecular target: T3, ZIKV NS5 polymerase (Zika virus, UniProt A0A024B7W1); assay: Polymerase activity assay (non-radioactive primer extension); assay type: biochemical; conditions: NS5 20 nM, Primer/Template 10 nM, 2 h at 37 °C, quantified by amount of RNA products; read-out: IC50 of RdRp-catalyzed RNA synthesis
T3 construct: NS5 (amino acids 1 to 903); His tag (8x histidine) (N); made in house; host or cells: Escherichia coli (Rosetta)
T3 sequence (A0A024B7W1 2521-3423): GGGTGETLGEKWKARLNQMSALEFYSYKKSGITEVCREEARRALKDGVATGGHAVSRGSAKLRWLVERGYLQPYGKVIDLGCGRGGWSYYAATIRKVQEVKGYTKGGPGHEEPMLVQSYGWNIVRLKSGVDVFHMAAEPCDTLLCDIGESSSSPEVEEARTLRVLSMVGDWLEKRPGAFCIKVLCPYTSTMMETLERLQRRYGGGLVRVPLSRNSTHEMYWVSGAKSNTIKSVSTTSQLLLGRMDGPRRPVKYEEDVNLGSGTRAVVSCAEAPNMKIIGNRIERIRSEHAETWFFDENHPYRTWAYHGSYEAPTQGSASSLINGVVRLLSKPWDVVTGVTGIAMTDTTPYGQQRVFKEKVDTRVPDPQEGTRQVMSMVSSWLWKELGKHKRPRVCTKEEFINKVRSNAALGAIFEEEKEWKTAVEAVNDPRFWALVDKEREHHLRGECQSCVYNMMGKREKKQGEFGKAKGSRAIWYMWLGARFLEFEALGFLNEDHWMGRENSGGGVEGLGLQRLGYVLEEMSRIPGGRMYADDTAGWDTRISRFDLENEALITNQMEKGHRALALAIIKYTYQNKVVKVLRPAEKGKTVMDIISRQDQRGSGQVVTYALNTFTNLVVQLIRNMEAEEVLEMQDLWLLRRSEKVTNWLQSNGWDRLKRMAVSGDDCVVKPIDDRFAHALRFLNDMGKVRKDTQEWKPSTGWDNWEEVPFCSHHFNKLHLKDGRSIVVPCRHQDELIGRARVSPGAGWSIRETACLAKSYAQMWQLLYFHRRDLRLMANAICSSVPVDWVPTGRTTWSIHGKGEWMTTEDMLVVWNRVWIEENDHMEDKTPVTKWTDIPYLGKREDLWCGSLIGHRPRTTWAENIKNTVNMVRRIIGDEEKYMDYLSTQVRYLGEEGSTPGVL
Method: ZIKV NS5 polymerase activity was determined using a primer extension reaction with a fluorescently labeled RNA primer/RNA template complex (P/T) as described by Lu et al.. Briefly, fluorescently labeled oligonucleotide primer (Cy5-RNA) and unlabeled RNA template were mixed and then slowly cooled down for annealing. A typical primer extension reaction was performed by ZIKV NS5 polymerase at various concentrations, followed by incubation for 2 h at 37 °C. To determine the inhibitory activity of fidaxomicin, the polymerase reactions were initiated by addition of fidaxomicin at gradient concentrations ranging between 0 and 200 μM. The products were detected by denaturing polyacrylamide gel electrophoresis (Urea PAGE), and the results were scanned using an Odyssey infrared imaging system (LI-COR Biosciences, Lincoln, NE). The images were analyzed, and proper RNA bands were quantified using Image J software version 1.52a (NIH, Bethesda, MD, USA).

ZIKV ZG-01 strain [2] = assay: In vitro antiviral assay, plaque assay, ZIKV ZG-01
Method: (§3) The anti-ZIKV activity of fidaxomicin and ribavirin was evaluated in vitro by plaque assay. Various cell lines, including SNB19 (6 × 10^4/well, 10% FBS DMEM), A172 (7 × 10^4/well, 10% FBS DMEM), Vero (6 × 10^4/well 10% FBS DMEM), Huh7 (7 × 10^4/well, 10% FBS DMEM), HUVECs (7 × 10^4/well, 15% FBS M199 medium supplemented with 2 mM L-glutamine, 0.02 mg/mL endothelial cell growth supplement, and 0.05 mg/mL heparin), and A549 (6 × 10^4/well, 5% FBS DMEM), were plated in 12-well plates and allowed to attach overnight, followed by infection with ZIKV (ZG-01 strain or MR766 strain, respectively, at indicated MOI) in the presence of different concentrations of fidaxomicin, ribavirin, or vehicle control for 1 h, followed by two washes with 1 × PBS and incubated with fresh medium (without virus) consisting of corresponding concentrations of the compounds for further 48 h. The cell supernatants were collected to quantify ZIKV infection by plaque assay as previously described or by RT-qPCR. […] The anti-DENV activity of fidaxomicin was evaluated in vitro by RT-qPCR.

ZIKV ZG-01 strain [3] = assay: In vitro antiviral assay, RT-qPCR, ZIKV ZG-01; assay type: cell-based; conditions: Zika virus
Method: as §3
RNA from cell supernatants or from mouse tissues (brain and testis) was prepared with RaPure Viral RNA/DNA Kit (Magen, Guangzhou, China) according to the manufacturer’s instructions. The first-strand cDNA was synthesized using random hexamer primers with the Revert Aid Reverse Transcription Kit (Thermo Fisher Scientific, Rockford, IL, USA), and real-time PCR was carried out by using LightCycler® 480 Probes Master (2× reaction mix buffer including DNA polymerase) (no. 04887301001, Roche, Basel, Switzerland). Virus concentration was determined by interpolation onto an internal standard curve made up of a 7-point dilution series of in vitro transcribed RNA and tissue weight to quantify ZIKV RNA as copies/gram tissue. Primer sets used for real-time PCR are shown in Additional file 1: Table S1. Reverse transcription and real-time PCR were performed for at least three times.

DENV2 (NGC) = assay: In vitro anti-DENV assay, RT-qPCR; assay type: cell-based, Dengue-2 virus; conditions: Dengue virus
[4] = parameters: method as in PMID 22752858; conditions: rats; cited from earlier work
in vitro = conditions: African green monkey
Method: Cell viability was detected by the 3-(4,5-dimethyl-2-thiazolyl)-2,5-diphenyl-2H-tetrazolium bromide (MTT) assay according to a previously described method [48]. Briefly, cells were seeded in 96-well plates at a density of 1 × 10^4 cells per well and cultured at 37 °C for 24 h, followed by exposure to the serially diluted fidaxomicin or ribavirin separately for 48 h. Cell survival rate was determined by MTT reduction assay according to the manufacturer’s protocol (Invitrogen). The 50% cytotoxic concentration (CC50) was defined as the compound concentration required to inhibit the cell growth by 50% compared with the control assay. The assay was performed in triplicates in three independent experiments.

[5] = in vivo, po; cited from earlier work

T1 sequence (A0A024B7W1 2521-3423): as above

For `CCc1c(Cl)c(O)c(Cl)c(O)c1C(=O)O[C@H]1[C@H](O)[C@H](OC)[C@H](OC/C2=C\C=C\C[C@H](O)/C(C)=C/[C@H](CC)[C@@H](O[C@@H]3OC(C)(C)[C@@H](OC(=O)C(C)C)[C@H](O)[C@@H]3O)/C(C)=C/C(C)=C/C[C@@H]([C@@H](C)O)OC2=O)O[C@@H]1C` [Fidaxomicin], the Kd [1] was 18.1 µM, the “binding to DENV2 NS5 protein (SPR)” value (DENV2 NS5 protein) was “affinity” and the IC50 (ZIKV NS5 polymerase) was 10.9 µM. The “EC50 lower than that of ribavirin” value (ZIKV ZG-01 strain [2]; SNB19 cells) was 10 fold, the “concentration above which ZIKV infection was completely undetectable” value (ZIKV ZG-01 strain [2]; SNB19 cells, plaque assay) was “exceeded 18 μM” and the EC90 (ZIKV ZG-01 strain [2]; SNB19 cells, plaque assay, 48 h) was 8.9 ± 0.6 µM. It also gave an EC50 (ZIKV ZG-01 strain [2]; Zika virus, A549, 48 h) of 12.2 ± 3.6 µM, an EC90 (ZIKV ZG-01 strain [2]; Zika virus, A549, 48 h, A549 cells, plaque assay, 48 h) of 39.5 ± 4.8 µM and an EC50 (ZIKV ZG-01 strain [2]; Zika virus, Huh-7, 48 h) of 7.7 ± 1.7 µM. For the same compound, the EC90 (ZIKV ZG-01 strain [2]; Zika virus, Huh-7, 48 h, Huh7 cells, plaque assay, 48 h) was 17.8 ± 3.5 µM, the EC50 (ZIKV ZG-01 strain [2]; Zika virus, SNB-19, 48 h) was 6 ± 1 µM and the EC90 (ZIKV ZG-01 strain [2]; Zika virus, SNB-19, 48 h, SNB19 cells, plaque assay, 48 h) was ~9 µM. It also gave an EC50 (ZIKV ZG-01 strain [2]; Zika virus, Vero, 48 h) of 11.7 ± 2.1 µM, an EC90 (ZIKV ZG-01 strain [2]; Zika virus, Vero, 48 h, Vero cells, plaque assay) of 48.2 ± 5.3 µM and an EC50 (ZIKV ZG-01 strain [3]; A 172, A172 cells, viral RNA copy number by RT-qPCR) of 8.8 ± 1.9 µM. The EC90 (ZIKV ZG-01 strain [3]; A 172, A172 cells, viral RNA copy number by RT-qPCR, read-out: EC90) was 11.8 ± 1.4 µM, the EC90 (ZIKV ZG-01 strain [3]; HUVEC) was 23.2 ± 3 µM and the EC50 (ZIKV ZG-01 strain [3]; HUVEC, HUVECs, viral RNA copy number by RT-qPCR) was 14.5 ± 1.2 µM. For the same compound, the EC50 (ZIKV ZG-01 strain [3]; Huh-7, Huh7 cells, viral RNA copy number by RT-qPCR) was 11.1 ± 1.6 µM, the EC90 (ZIKV ZG-01 strain [3]; Huh-7, Huh7 cells, viral RNA copy number by RT-qPCR, read-out: EC90) was 21.6 ± 1 µM and the EC50 (ZIKV ZG-01 strain [3]; SNB-19, SNB19 cells, viral RNA copy number by RT-qPCR) was 9.2 ± 2.4 µM. The EC90 (ZIKV ZG-01 strain [3]; SNB-19, SNB19 cells, viral RNA copy number by RT-qPCR, read-out: EC90) was 17.3 ± 4.8 µM, the EC50 (ZIKV ZG-01 strain [3]; A549 cells, viral RNA copy number by RT-qPCR) was 13 ± 3.3 µM and the EC90 (ZIKV ZG-01 strain [3]; A549 cells, viral RNA copy number by RT-qPCR, read-out: EC90) was 17.8 ± 5.3 µM. For the same compound, the EC50 (ZIKV ZG-01 strain [3]; Vero cells, viral RNA copy number by RT-qPCR) was 12.5 ± 2.2 µM, the EC90 (ZIKV ZG-01 strain [3]; Vero cells, viral RNA copy number by RT-qPCR, read-out: EC90) was 52.1 ± 5.5 µM and the EC50 (DENV2 (NGC); DENV2, A549 cells) was 9.9 ± 2.5 µM. It also gave an EC90 (DENV2 (NGC); DENV2, A549 cells) of 18 ± 4.2 µM, an EC50 (DENV2 (NGC); DENV2, SNB-19, SNB19 cells) of 6.8 ± 1.5 µM and an EC90 (DENV2 (NGC); DENV2, SNB-19, SNB19 cells) of 10.6 ± 2.1 µM. For the same compound, the “No Observed Adverse Effect Level (NOAEL)” value [4] was 62.5 mg/kg, the CC50 at 48 h (in vitro) was 126 ± 10.3 µM and the “absorption through the gastrointestinal tract” value [5] was “minimally absorbed”. The plasma concentration [5] was “nanogram-per-milliliter scale”.

Source: article PMC7392643, “Antibiotic fidaxomicin is an RdRp inhibitor as a potential new therapeutic agent against Zika virus” (BMC Medicine, 2020)
